Where two headings read alike, the source gives them in different places.
Columns and labels:
[1] = in water; background statement; cited from earlier work
[2] = solubility (characterization); type: physicochemical
[3] = test system: Gram-positive organisms; experiment: antibacterial activity, general statement; type: cell-based; settings: including organisms resistant to penicillins, macrolides and lincosaminides
[4] = free acid form, in phosphate buffers at physiological pH (7.0-7.5)
[5] = in chloroform, methylene chloride
[6] = in ether and saturated hydrocarbon solvents
[7] = in lower alcohols, ketones, ethyl acetate

Compound	Solubility [1]	Solubility [2, 4]	Solubility ([2]; free acid form, in water)	Solubility [2, 5]	Solubility [2, 6]	Solubility [2, 7]	Solubility ([2]; salts, in water)	activity against Gram-positive organisms [3]
paulomycin	relatively insoluble	–	–	–	–	–	–	–
CC=C(NC(=S)SCC(NC(C)=O)C(=O)O)C(=O)OC1C(COC(C)=O)OC(C2(O)CC(=O)C(O)=C(C(N)=O)C2=O)C(O)C1OC1CC(OC)C(O)(C(C)OC(=O)C(C)CC)C(C)O1 (stereo not drawn) [Antibiotic 273a2α]	–	soluble	insoluble	less soluble	insoluble	Soluble	soluble	active
CC=C(NC(=S)SCC(NC(C)=O)C(=O)O)C(=O)OC1C(COC(C)=O)OC(C2(O)CC(=O)C(O)=C(C(N)=O)C2=O)C(O)C1OC1CC(OC)C(O)(C(C)OC(=O)C(C)C)C(C)O1 (stereo not drawn) [Antibiotic 273a2β]	–	soluble	insoluble	less soluble	insoluble	Soluble	soluble	active

— EP0162568A2, “Paulomycin analogues and their preparation” (THE UPJOHN COMPANY, priority 1984, dated 1985)
